Measured values from publication PMC6835510, “Magnificamide, a β-Defensin-Like Peptide from the Mucus of the Sea Anemone Heteractis magnifica, Is a Strong Inhibitor of Mammalian α-Amylases” (Marine Drugs, 2019).
Bridge positions count the residues as written; N and C are the ends. Ends that are not written are not given here.

Experiments:
[1] = target: T1, porcine pancreatic α-amylase (PPA) (Sus scrofa, UniProt P00690); assay: PPA inhibitory activity of RP-HPLC fractions; format: biochemical; details: 10 µL sample, PPA 1 µg/mL, 50 mM sodium phosphate, 100 mM NaCl, pH 7.0, 10 min RT, CNPG3 1 mM, 405 nm
T1 construct: purchased Sigma Aldrich A4268
T1 sequence (P00690 16-511): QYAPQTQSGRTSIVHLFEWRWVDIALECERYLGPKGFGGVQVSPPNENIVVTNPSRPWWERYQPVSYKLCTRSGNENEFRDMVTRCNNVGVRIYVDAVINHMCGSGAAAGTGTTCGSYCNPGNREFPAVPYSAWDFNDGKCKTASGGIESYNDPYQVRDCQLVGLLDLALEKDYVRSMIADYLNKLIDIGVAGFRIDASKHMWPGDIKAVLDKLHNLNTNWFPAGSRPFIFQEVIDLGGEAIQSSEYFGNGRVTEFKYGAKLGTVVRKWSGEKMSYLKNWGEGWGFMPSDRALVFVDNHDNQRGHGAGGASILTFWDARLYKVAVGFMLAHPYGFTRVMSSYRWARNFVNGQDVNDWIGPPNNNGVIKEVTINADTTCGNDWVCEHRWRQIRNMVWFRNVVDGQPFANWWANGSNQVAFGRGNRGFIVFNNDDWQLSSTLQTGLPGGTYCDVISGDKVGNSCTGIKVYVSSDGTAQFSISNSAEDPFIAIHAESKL
Procedure: The porcine α-amylase (PPA) inhibitory activity of the peptide fractions obtained by RP-HPLC was tested by the following procedure. Experimental samples (10 µL) were added to 80 µL of 50 mM sodium phosphate, 100 mM sodium chloride buffer (pH 7.0), and PPA (A4268) (1 µg/mL) (Sigma Aldrich, St. Louis, MO, USA), and incubated for 10 min at RT. The substrate solution, 2-chloro-4-nitrophenyl α-D-maltotrioside (CNPG3) (Sigma Aldrich, St. Louis, MO, USA), was added to the reaction mixture (1 mM) and incubated for 10 min at RT. The optical absorption was measured on an xMark microplate spectrophotometer (BioRad, Hercules, CA, USA) at 405 nm.

Shaker IR = assay: Two-electrode voltage-clamp; format: cell-based, Drosophila; details: 10 µM; insect channel; Xenopus laevis oocytes; 18–22 °C
Text: For the expression of Nav channels (mammalian rNav1.2, rNav1.4, hNav1.5, mNav1.6 and hNav1.8 channels; the insect channel BgNav1 from Blattella germanica; and the auxiliary subunits rβ1, hβ1, and TipE) and Kv channels (mammalian rKv1.1, rKv1.2, hKv1.3, rKv1.4, rKv1.5, rKv1.6, rKv2.1, hKv3.1, rKv4.2, hKv10.1, and hERG; and Drosophila Shaker’s IR) in Xenopus laevis oocytes; the linearized plasmids were transcribed using the T7 or SP6 mMESSAGE-mMACHINE transcription kit (Ambion, Carlsbad, CA, USA). The harvesting of stage V–VI oocytes from anesthetized female Xenopus laevis frog was previously described. Oocytes were injected with 50 nL of cRNA at a concentration of 1 ng/nL using a microinjector (Drummond Scientific, Broomall, PA, USA). The oocytes were incubated in a solution containing 96-mM NaCl, 2-mM KCl, 1.8-mM CaCl2, 2-mM MgCl2, and 5-mM HEPES (pH 7.4), supplemented with 50 mg/L gentamycin sulfate.
Two-electrode voltage-clamp recordings were performed at room temperature (18–22 °C) using a Geneclamp 500 amplifier (Molecular Devices, Downingtown, PA, USA) controlled by a pClamp data acquisition system (Axon Instruments, Union City, CA, USA). Whole cell currents from oocytes were recorded 1–4 days after injection. […] All data were analyzed using pClamp Clampfit 10.0 (Molecular Devices, Downingtown, PA, USA) and Origin 7.5 software (Originlab, Northampton, MA, USA).

SEGTSCYIYHGVYGICKAKCAEDMKAMAGMGVCEGDLCCYKTPW (disulfide 6-38, 16-33, 20-39) [r-magnificamide]
PPA inhibition by RP-HPLC fraction [1]: inhibited PPA
Channel modulating activity, Shaker (Shaker IR): Not active
